According to the supplement of paper PMC10307832:

Tests used:
Test in all cases: relative viability (nuclei count vs DMSO), 5 days (fraction); higher = more cells survive
KIN001-266 + Linsitinib = compound: CCN1CCC(CC1)N2C=C(N=N2)CNC3=CC4=C(C(=CN=C4C(=C3)Cl)C#N)NC5=CC(=C(C=C5)F)Cl [KIN001-266] + C[C@]1(O)C[C@@H](c2nc(-c3ccc4ccc(-c5ccccc5)nc4c3)c3c(N)nccn32)C1 [Linsitinib] (partner 1 µM)
Procedure, shortened: (§1)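 Lung cancer cell lines, seeded in 1536-well plates, were treated the following day by pin tool with a single drug or with five library-drug doses (not always all listed) in √10 steps on top of a fixed anchor-drug dose. Cells were fixed and nuclei stained in one step after 5 days, and nuclei were counted. Relative viability is the nuclei count for treated wells divided by that for vehicle wells, reported as medians of duplicate plates.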

KIN001-266 + Navitoclax = compound: CCN1CCC(CC1)N2C=C(N=N2)CNC3=CC4=C(C(=CN=C4C(=C3)Cl)C#N)NC5=CC(=C(C=C5)F)Cl [KIN001-266] + CC1(C)CCC(c2ccc(Cl)cc2)=C(CN2CCN(c3ccc(C(=O)NS(=O)(=O)c4ccc(N[C@H](CCN5CCOCC5)CSc5ccccc5)c(S(=O)(=O)C(F)(F)F)c4)cc3)CC2)C1 [Navitoclax] (partner 0.5 µM)
Procedure, shortened: as §1

KIN001-266 + Luminespib = compound: CCN1CCC(CC1)N2C=C(N=N2)CNC3=CC4=C(C(=CN=C4C(=C3)Cl)C#N)NC5=CC(=C(C=C5)F)Cl [KIN001-266] + CCNC(=O)c1noc(-c2cc(C(C)C)c(O)cc2O)c1-c1ccc(CN2CCOCC2)cc1 [Luminespib] (partner 0.01 µM)
Procedure, shortened: as §1

KIN001-266 + Foretinib = compound: CCN1CCC(CC1)N2C=C(N=N2)CNC3=CC4=C(C(=CN=C4C(=C3)Cl)C#N)NC5=CC(=C(C=C5)F)Cl [KIN001-266] + COc1cc2c(Oc3ccc(NC(=O)C4(C(=O)Nc5ccc(F)cc5)CC4)cc3F)ccnc2cc1OCCCN1CCOCC1 [Foretinib] (partner 0.25 µM)
Procedure, shortened: as §1

Cell Line	relative viability (KIN001-266 + Linsitinib; first compound 0.08 µM)	relative viability (KIN001-266 + Linsitinib; first compound 0.253 µM)	relative viability (KIN001-266 + Linsitinib; first compound 0.8 µM)	relative viability (KIN001-266 + Linsitinib; first compound 2.53 µM)	relative viability (KIN001-266 + Linsitinib; first compound 8 µM)	relative viability (KIN001-266 + Navitoclax; first compound 0.08 µM)	relative viability (KIN001-266 + Navitoclax; first compound 0.253 µM)	relative viability (KIN001-266 + Navitoclax; first compound 0.8 µM)	relative viability (KIN001-266 + Navitoclax; first compound 2.53 µM)	relative viability (KIN001-266 + Navitoclax; first compound 8 µM)	relative viability (KIN001-266 + Luminespib; first compound 0.08 µM)	relative viability (KIN001-266 + Luminespib; first compound 0.253 µM)	relative viability (KIN001-266 + Luminespib; first compound 0.8 µM)	relative viability (KIN001-266 + Luminespib; first compound 2.53 µM)	relative viability (KIN001-266 + Luminespib; first compound 8 µM)	relative viability (KIN001-266 + Foretinib; first compound 0.08 µM)	relative viability (KIN001-266 + Foretinib; first compound 0.253 µM)	relative viability (KIN001-266 + Foretinib; first compound 0.8 µM)	relative viability (KIN001-266 + Foretinib; first compound 2.53 µM)	relative viability (KIN001-266 + Foretinib; first compound 8 µM)
201T	1.08	1.04	0.984	1.01	1.15	1.18	1.23	1.23	1.19	1.21	1.05	1.05	1	1.04	1.06	1.07	1.11	1.13	1.12	1.14
A549	0.604	0.55	0.562	0.668	0.592	1.26	1.17	1.27	1.3	1.2	–	–	–	–	–	0.95	0.854	1.04	0.87	0.926
A-427	1.12	1.2	1.09	1.06	1.13	0.973	0.991	0.978	0.983	0.953	0.874	0.843	0.979	0.913	0.969	1.06	1.07	0.983	0.992	0.971
ABC-1	1.1	0.788	0.945	0.76	0.713	–	–	–	–	–	0.757	0.956	0.655	1.02	0.378	1.02	1.12	1.1	1.08	0.873
BEN	0.892	0.919	0.914	1.04	0.978	0.064	0.0577	0.0627	0.0713	0.0844	0.559	0.651	0.861	0.288	0.458	0.708	0.88	0.755	0.407	0.691
CAL-12T	0.802	0.811	0.774	0.863	0.493	1.47	1.31	1.17	1.33	1.15	0.363	0.322	0.499	0.475	0.2	1.21	1.01	1.02	0.974	1.11
COR-L23	0.958	0.918	0.928	0.88	0.601	0.99	1.03	1.01	1.01	0.54	0.638	0.636	0.694	0.621	0.423	0.905	0.944	0.869	0.933	0.776
